According to US20110230481A2, “DERIVATIVES OF TETRABROMOBENZIMIDAZOLE, A PROCESS FOR THE PREPARATION THEREOF, A PHARMACEUTICAL COMPOSITION COMPRISING THE SAME, A METHOD OF USING THE SAME, A METHOD FOR MODULATING OR REGULATING SERINE/THREONINE KINASES, AND SERINE/THREONINE KINASES MODULATING AGENT” (SELVITA S.A., priority 2009, published 2011):

What was measured:
Experiment in all cases: KINOMEscan Max
Assay type in all cases: binding
RET(V804M) = target: T1, RET(V804M) (Homo sapiens, UniProt P07949, V804M)
T1 construct: DNA tag (qPCR read-out)
Method: (§1) Kinase panel profiling was performed at Ambit Kinomescan (http://www.ambitbio.com/technology/) using the “KINOMEscan™ Max” assay platform, a high-throughput method for screening small molecule compounds against large numbers of human kinases. KINOMEscan™ is based on a competition binding assay that quantitatively measures the ability of a compound to compete with an immobilized, active-site directed ligand. The assay is performed by combining three components: DNA-tagged kinase; immobilized ligand; and a test compound. The ability of the test compound to compete with the immobilized ligand is measured via quantitative PCR of the DNA tag. For a description of Ambit's assay protocol, see Fabian et al. A small molecule-kinase interaction map for clinical kinase inhibitors. Nat. Biotechnol. 23, 329-336 (2005).

ACVR1B = ACVR1B (Homo sapiens, UniProt P36896)
Method: as §1

PAK3 = PAK3 (Homo sapiens, UniProt O75914)
Method: as §1

EPHA8 = target: T2, EPHA8 (Homo sapiens, UniProt P29322)
T2 construct: purchased Ambit (KINOMEscan Max service)
Method: as §1

STK39 = target: T3, STK39 (Homo sapiens, UniProt Q9UEW8)
T3 construct: DNA tag (qPCR read-out)
Method: as §1

DMPK2 = DMPK2 (Homo sapiens, UniProt Q6DT37)
Method: as §1

GRK4 = target: T4, GRK4 (Homo sapiens, UniProt P32298)
T4 construct: purchased Ambit Kinomescan (contract panel, KINOMEscan Max)
Method: as §1

BIKE = target: T5, BIKE (Homo sapiens, UniProt Q9NSY1)
T5 construct: purchased Ambit (KINOMEscan Max service)
Method: as §1

GCN2(Kin.Dom.S808G) = target: T6, GCN2(Kin.Dom.S808G) (Homo sapiens, UniProt Q9P2K8, S808G)
T6 construct: GCN2(Kin.Dom.S808G)
Method: as §1

JNK1 = target: T7, JNK1 (Homo sapiens, UniProt P45983); details: 1 μM
T7 construct: purchased Ambit Kinomescan (contract panel)
Method: as §1

EPHB6 = EPHB6 (Homo sapiens, UniProt O15197)
Method: as §1

CAMK2G = target: T8, CAMK2G (Homo sapiens, UniProt Q13555)
T8 construct: DNA tag (qPCR label); purchased Ambit Kinomescan (contract screening)
Method: as §1

FES = target: T9, FES (Homo sapiens, UniProt P07332)
T9 construct: purchased Ambit Kinomescan (contract panel, KINOMEscan Max)
Method: as §1

DDR1 = target: T10, DDR1 (Homo sapiens, UniProt Q08345)
T10 construct: purchased Ambit (KINOMEscan Max panel service)
Method: as §1

DAPK2 = target: T11, DAPK2 (Homo sapiens, UniProt Q9UIK4)
T11 construct: DNA tag (qPCR read-out)
Method: as §1

MAP3K15 = target: T12, MAP3K15 (Homo sapiens, UniProt Q6ZN16)
T12 construct: purchased Ambit Kinomescan (contract panel)
Method: as §1

[1] = target: T13, RSK3(Kin.Dom.2-C-terminal) (Homo sapiens, UniProt Q15349)
T13 construct: RSK3(Kin.Dom.2-C-terminal); purchased Ambit Kinomescan (contract screening)
Method: as §1

CDC2L1 = target: T14, CDC2L1 (Homo sapiens, UniProt P21127)
T14 construct: DNA tag (qPCR label); purchased Ambit Kinomescan (contract screening)
Method: as §1

KIT(L576P) = target: T15, KIT(L576P) (Homo sapiens, UniProt P10721, L576P)
T15 construct: purchased Ambit (KINOMEscan Max service)
Method: as §1

TXK = TXK (Homo sapiens, UniProt P42681)
Method: as §1

IKK-beta = target: T16, IKK-beta (Homo sapiens, UniProt O14920)
T16 construct: DNA tag (qPCR read-out)
Method: as §1

ERK4 = target: T17, ERK4 (Homo sapiens, UniProt P31152)
T17 construct: purchased Ambit Kinomescan (contract screening)
Method: as §1

[2] = target: T18, RSK3(Kin.Dom.1-N-terminal) (Homo sapiens, UniProt Q15349)
T18 construct: RSK3(Kin.Dom.1-N-terminal); DNA tag (qPCR read-out)
Method: as §1

MST1 = MST1 (Homo sapiens, UniProt Q13043); details: 1 μM
Method: as §1

TESK1 = TESK1 (Homo sapiens, UniProt Q15569)
Method: as §1

MERTK = target: T19, MERTK (Homo sapiens, UniProt Q12866)
T19 construct: purchased Ambit (KINOMEscan Max service)
Method: as §1

GSK3A = target: T20, GSK3A (Homo sapiens, UniProt P49840)
T20 construct: purchased Ambit Kinomescan (contract panel, KINOMEscan Max)
Method: as §1

PAK7 = target: T21, PAK7 (Homo sapiens, UniProt Q9P286)
T21 construct: DNA tag (qPCR read-out)
Method: as §1

TNK2 = target: T22, TNK2 (Homo sapiens, UniProt Q07912)
T22 construct: purchased Ambit Kinomescan (contract screening service)
Method: as §1

NLK = NLK (Homo sapiens, UniProt Q9UBE8)
Method: as §1

CAMK4 = target: T23, CAMK4 (Homo sapiens, UniProt Q16566)
T23 construct: DNA tag (qPCR label); purchased Ambit Kinomescan (contract screening)
Method: as §1

RET(M918T) = target: T24, RET(M918T) (Homo sapiens, UniProt P07949, M918T)
T24 construct: DNA tag (qPCR read-out)
Method: as §1

PRKCE = target: T25, PRKCE (Homo sapiens, UniProt Q02156)
T25 construct: DNA tag (qPCR read-out); purchased Ambit Kinomescan
Method: as §1

T11 sequence (Q9UIK4 whole entry): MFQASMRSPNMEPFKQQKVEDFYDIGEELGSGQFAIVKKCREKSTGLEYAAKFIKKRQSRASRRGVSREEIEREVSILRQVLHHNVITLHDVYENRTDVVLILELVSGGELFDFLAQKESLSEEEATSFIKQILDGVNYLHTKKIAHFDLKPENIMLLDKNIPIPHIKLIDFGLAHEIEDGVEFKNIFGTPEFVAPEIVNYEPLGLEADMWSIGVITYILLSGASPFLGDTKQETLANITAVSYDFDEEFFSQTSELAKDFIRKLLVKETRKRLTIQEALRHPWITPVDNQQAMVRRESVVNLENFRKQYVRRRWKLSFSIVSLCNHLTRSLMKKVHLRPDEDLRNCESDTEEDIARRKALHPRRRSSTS
T9 sequence (P07332 whole entry): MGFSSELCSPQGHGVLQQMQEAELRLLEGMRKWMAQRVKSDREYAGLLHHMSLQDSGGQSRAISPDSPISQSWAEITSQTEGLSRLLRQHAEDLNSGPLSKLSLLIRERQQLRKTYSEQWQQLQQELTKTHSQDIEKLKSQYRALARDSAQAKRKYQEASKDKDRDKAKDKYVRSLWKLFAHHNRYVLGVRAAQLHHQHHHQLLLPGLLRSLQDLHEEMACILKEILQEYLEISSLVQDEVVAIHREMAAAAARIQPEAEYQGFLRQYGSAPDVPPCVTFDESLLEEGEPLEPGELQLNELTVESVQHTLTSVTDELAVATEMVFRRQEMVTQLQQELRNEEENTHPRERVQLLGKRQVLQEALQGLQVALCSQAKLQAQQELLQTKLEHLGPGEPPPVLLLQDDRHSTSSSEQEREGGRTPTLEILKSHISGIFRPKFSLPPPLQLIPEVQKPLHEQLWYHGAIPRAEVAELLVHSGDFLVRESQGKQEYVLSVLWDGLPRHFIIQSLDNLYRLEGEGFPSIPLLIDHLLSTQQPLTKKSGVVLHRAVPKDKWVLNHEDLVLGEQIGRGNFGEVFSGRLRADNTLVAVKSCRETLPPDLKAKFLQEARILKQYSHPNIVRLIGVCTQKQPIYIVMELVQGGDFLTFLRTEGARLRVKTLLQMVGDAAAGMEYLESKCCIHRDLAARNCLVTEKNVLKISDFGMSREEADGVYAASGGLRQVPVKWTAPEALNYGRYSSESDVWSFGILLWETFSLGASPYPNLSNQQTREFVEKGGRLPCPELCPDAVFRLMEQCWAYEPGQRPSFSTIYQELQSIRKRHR
T23 sequence (Q16566 whole entry): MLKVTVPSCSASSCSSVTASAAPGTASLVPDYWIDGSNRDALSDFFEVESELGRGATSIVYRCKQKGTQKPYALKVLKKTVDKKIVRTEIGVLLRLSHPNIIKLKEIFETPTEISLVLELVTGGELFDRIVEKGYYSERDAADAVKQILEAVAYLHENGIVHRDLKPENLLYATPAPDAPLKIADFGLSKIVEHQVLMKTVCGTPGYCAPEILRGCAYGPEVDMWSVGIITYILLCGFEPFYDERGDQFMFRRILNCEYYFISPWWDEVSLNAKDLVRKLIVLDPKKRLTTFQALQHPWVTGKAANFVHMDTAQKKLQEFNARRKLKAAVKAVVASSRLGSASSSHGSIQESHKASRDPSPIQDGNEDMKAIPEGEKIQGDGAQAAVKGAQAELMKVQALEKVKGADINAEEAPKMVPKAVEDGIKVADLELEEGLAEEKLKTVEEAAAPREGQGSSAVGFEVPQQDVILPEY
Sequence of PAK3 (O75914 whole entry): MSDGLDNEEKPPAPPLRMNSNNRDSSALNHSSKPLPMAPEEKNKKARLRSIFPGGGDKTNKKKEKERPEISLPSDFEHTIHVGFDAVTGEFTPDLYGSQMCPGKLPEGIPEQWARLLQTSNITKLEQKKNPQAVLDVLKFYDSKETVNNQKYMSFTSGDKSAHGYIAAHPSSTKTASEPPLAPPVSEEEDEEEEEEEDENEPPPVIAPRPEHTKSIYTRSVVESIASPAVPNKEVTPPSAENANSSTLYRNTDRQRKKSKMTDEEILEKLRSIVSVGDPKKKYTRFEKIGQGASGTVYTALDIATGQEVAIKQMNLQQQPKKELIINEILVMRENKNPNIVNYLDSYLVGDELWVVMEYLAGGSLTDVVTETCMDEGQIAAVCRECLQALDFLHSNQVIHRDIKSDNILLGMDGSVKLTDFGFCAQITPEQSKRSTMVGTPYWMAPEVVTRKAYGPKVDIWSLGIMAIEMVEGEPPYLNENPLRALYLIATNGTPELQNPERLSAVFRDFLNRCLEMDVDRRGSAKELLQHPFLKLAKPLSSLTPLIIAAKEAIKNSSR
T18 sequence (Q15349 59-318 limits assumed): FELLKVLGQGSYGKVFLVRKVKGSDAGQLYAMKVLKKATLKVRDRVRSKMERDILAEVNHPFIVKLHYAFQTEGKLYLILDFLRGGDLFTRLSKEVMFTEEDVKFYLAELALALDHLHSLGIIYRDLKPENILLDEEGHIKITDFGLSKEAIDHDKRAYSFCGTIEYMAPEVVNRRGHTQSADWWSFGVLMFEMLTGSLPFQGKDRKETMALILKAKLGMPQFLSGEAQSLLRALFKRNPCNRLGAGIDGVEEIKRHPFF
T12 sequence (Q6ZN16 whole entry): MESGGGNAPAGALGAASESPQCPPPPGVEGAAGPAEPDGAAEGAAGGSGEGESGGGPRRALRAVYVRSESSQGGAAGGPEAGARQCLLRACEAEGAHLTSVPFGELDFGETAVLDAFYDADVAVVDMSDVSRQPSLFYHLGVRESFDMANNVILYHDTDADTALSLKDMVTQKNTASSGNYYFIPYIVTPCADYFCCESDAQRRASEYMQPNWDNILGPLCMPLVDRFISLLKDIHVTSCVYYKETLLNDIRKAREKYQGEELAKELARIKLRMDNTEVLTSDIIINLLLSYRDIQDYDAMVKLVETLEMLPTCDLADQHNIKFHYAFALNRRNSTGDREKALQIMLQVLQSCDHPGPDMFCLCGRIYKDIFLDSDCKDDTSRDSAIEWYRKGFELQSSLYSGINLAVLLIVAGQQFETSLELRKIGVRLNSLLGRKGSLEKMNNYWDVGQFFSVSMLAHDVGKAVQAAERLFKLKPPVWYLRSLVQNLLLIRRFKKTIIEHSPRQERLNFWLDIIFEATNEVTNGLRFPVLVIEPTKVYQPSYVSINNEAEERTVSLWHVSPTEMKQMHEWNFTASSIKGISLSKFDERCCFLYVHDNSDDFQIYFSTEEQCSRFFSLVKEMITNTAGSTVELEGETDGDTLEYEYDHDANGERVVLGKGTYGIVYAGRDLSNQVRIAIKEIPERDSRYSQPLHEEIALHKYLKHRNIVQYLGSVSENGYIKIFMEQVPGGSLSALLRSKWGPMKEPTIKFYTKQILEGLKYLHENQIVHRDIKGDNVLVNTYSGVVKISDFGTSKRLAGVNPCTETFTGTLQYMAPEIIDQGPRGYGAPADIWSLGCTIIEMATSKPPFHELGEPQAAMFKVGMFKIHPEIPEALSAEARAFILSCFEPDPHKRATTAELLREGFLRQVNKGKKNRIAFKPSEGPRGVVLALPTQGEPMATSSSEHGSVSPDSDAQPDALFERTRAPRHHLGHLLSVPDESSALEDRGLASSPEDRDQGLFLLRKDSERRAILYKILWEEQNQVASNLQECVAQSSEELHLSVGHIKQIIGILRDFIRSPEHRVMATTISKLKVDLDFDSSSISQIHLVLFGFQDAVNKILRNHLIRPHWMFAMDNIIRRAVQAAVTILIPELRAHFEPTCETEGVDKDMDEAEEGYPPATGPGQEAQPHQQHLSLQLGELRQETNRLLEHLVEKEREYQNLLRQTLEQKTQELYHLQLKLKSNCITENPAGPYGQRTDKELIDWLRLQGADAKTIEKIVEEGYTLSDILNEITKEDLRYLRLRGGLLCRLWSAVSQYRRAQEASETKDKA
Sequence of TXK (P42681 whole entry): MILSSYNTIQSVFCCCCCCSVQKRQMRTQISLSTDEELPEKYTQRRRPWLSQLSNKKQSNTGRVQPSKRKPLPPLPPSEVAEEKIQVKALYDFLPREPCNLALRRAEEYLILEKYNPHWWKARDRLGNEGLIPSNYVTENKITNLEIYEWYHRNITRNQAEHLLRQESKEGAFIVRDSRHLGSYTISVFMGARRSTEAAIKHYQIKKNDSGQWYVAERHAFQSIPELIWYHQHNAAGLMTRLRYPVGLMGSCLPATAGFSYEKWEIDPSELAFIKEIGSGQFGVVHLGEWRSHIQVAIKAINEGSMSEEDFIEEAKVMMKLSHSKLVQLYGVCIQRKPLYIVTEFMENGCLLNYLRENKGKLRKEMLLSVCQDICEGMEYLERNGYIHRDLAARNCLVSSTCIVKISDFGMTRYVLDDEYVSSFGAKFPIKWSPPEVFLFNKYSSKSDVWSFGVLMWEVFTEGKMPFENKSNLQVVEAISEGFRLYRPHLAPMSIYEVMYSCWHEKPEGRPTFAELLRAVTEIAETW
T21 sequence (Q9P286 whole entry): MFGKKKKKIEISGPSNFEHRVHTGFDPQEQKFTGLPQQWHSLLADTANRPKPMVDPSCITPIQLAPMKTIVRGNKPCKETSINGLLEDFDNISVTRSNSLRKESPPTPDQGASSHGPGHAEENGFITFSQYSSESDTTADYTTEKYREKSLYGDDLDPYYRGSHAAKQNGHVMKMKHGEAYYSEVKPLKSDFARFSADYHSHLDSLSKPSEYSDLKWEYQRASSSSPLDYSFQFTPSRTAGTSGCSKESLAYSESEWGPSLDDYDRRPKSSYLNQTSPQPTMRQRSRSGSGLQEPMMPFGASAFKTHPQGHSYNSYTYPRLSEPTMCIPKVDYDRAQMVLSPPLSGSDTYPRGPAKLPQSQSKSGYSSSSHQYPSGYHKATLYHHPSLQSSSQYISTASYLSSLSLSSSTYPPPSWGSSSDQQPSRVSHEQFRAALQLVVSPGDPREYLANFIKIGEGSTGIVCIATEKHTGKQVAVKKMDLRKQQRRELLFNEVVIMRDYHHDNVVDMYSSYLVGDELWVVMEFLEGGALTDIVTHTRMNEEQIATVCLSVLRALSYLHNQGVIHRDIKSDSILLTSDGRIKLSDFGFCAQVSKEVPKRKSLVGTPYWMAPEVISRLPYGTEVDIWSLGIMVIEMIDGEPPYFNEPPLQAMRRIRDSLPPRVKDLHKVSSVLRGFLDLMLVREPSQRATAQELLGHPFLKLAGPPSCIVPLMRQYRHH

In the case of `NCCCNc1nc2c(Br)c(Br)c(Br)c(Br)c2[nH]1` [Compound 11, N-(3-aminopropyl)-4,5,6,7-tetrabromo-1H-benzo[d]imidazol-2-amine], the remaining binding at 1 µM (RET(V804M)) is reported as 100%, the remaining binding at 1 µM (ACVR1B) is reported as 100% and the remaining binding at 1 µM (PAK3) is reported as 91%. It also gave a remaining binding at 1 µM (EPHA8) of 86%, a remaining binding at 1 µM (STK39) of 100% and a remaining binding at 1 µM (DMPK2) of 96%. The remaining binding at 1 µM (GRK4) was 100%, the remaining binding at 1 µM (BIKE) was 60% and the remaining binding at 1 µM (GCN2(Kin.Dom.S808G)) was 95%. The “% binding” value (JNK1) was 100%, the remaining binding at 1 µM (EPHB6) was 95% and the remaining binding at 1 µM (CAMK2G) was 100%. It also gave a remaining binding at 1 µM (FES) of 100%, a remaining binding at 1 µM (DDR1) of 100% and a remaining binding at 1 µM (DAPK2) of 90%. It also gave a remaining binding at 1 µM (MAP3K15) of 100%, a remaining binding at 1 µM [1] of 97% and a remaining binding at 1 µM (CDC2L1) of 100%. For the same compound, the remaining binding at 1 µM (KIT(L576P)) was 83%, the remaining binding at 1 µM (TXK) was 93% and the remaining binding at 1 µM (IKK-beta) was 56%. The remaining binding at 1 µM (ERK4) was 98%, the remaining binding at 1 µM [2] was 100% and the “% binding” value (MST1) was 100%. It also gave a remaining binding at 1 µM (TESK1) of 93%, a remaining binding at 1 µM (MERTK) of 70% and a remaining binding at 1 µM (GSK3A) of 100%. The remaining binding at 1 µM (PAK7) was 90%, the remaining binding at 1 µM (TNK2) was 100% and the remaining binding at 1 µM (NLK) was 100%. The remaining binding at 1 µM (CAMK4) was 100%, the remaining binding at 1 µM (RET(M918T)) was 100% and the remaining binding at 1 µM (PRKCE) was 23%.
